Source: patent publication US20260207637A1, “MODULATOR FOR PROMOTING BINDING OF BUTYROPHILIN 3A1/2A1” (priority 2023, published 2026)
Where two headings read alike, the source gives them in different places.

How the values were obtained:
MIApaca/FG2 cells = experiment: EC50 assay of small molecule activated γδ T cells to kill MIApaca/FG2 tumor cells (10-fold dilution protocol); format: cell-based
Protocol: γδT cells and MIApaca/FG2 tumor cell lines were expanded and cultured in vitro. The MIApaca/FG2 cells were digested, and the cells were counted and resuspended in DMEM complete medium, the density of the cell suspension was adjusted and added into a 96-well plate at 5×10^3 cells/50 μL/well for overnight incubation. On the next day, the test compound and the control compound were diluted at a 10-fold ratio with γδT complete medium. 50 μL of diluted compound was transferred to the corresponding wells which had been plated with tumor cells, and the actual detection concentration was in the range of 10^−12-10^−5 M. γδT cells were resuspended in γδT complete medium, and the density of the cell suspension was adjusted according to the effector-target ratio of E:T=2:1, and then the cells were added to the corresponding wells at 1×10^4 cells/50 μL/well. After co-culture at 37° C., 5% CO2 for 20 hours, the cells were centrifuged. The supernatant was removed, and 50 μL of cell lysate containing luciferin substrate was added to each well. After standing for 18 minutes in the dark, the signal of chemiluminescence was detected. The EC50 value was calculated by four-parameter fitting, with the corresponding signal value of the well with only tumor cells as the minimum killing value, and the corresponding signal value of the well without tumor cells as the maximum killing value. The killing data of MIApaca/FG2 cells is as follows: […]

[1] = Pharmacokinetic test in cynomolgus monkeys; format: in vivo; conditions: IV 2 mg/kg
Protocol: The control compound 2 and compound 19 were formulated into 1 mg/mL solution in 10% DMSO/90% PBS. Cynomolgus monkeys were obtained from Suzhou Leo Bio Technology Co., Ltd. The control compound 2 and compound 19 were administered intravenously at 2 mg/kg, respectively. The blood collected before administration was recorded as zero point. Then 1 mL of blood was collected at eight time points: 0.083, 0.15, 0.5, 1.0 2.0, 4.0, 8.0, and 24.0, respectively. 1 mL of the collected whole blood was placed in a labeled EDTA-2K anticoagulant tube. After gently inverting up and down to fully mix the anticoagulant (EDTA-2K) with the blood, it was immediately placed in wet ice and centrifuged within 30 minutes to separate the plasma. The centrifugation conditions were set to 4° C., 2200 g, and 6 min. The plasma separated after centrifugation was placed in a labeled EP tube, and the content of compound 19 and control compound 2 in the plasma samples at different time points were detected and analyzed. There were 3 male cynomolgus monkeys in each group.

[2] = Stability experiment of compounds in human liver microsomes; format: in vitro ADME; conditions: NADPH, 37° C., read-out: T1/2 in human liver microsomes
Protocol: Compounds were prepared as a 10 mM stock solution with DMSO and then diluted with 80% acetonitrile-water to a 100 μM working solution for later use. Human liver microsomes were obtained from BIOIVT.
(1) The liver microsomes taken out from the refrigerator were placed in a 37° C. water bath thermostatic oscillator, pre-incubated for 5 min, and thawed for later use.
(2) A certain amount of NADPH was weighed and added to an appropriate amount of magnesium chloride solution to dissolve into a 2 mM solution for later use.
(3) A mixed solution of the warm incubation system (containing no β-NADPH) was prepared according to the proportions in the “composition of the experimental warm incubation system” above and dispensed at 165 μL/tubes (45 μL/tube for the negative control group and 120 μL/tube for the positive control group).
(4) For the sample at 0 min: 200 μL of internal standard working precipitant was added and then 30 μL of NADPH solution was added.
(5) For other samples: 135 μL NADPH solution was added to initiate the reaction (45 μL magnesium chloride solution was added for the negative control group), and incubated in a 37° C. water bath for 5, 15, 30, and 60 min (incubated in a 37° C. water bath for 60 min for the negative control group), then 60 μL was sampled and added to 200 µL of precipitant containing internal standard.
(6) For the positive control group: 90 L NADPH solution was added to initiate the reaction, and incubated in a 37° C. water bath for 5, 15 min, then 60 μL was sampled and added to 200 μL of precipitant containing internal standard.
(7) For neat sample: 297 μL of water was pipetted into a tube, 1000 μL of internal standard working solution was added, and 3 μL of test compound working solution was added.
(8) All samples were vortexed and centrifuged.
(9) 150 μL of the supernatant was sampled and added to 150 μL of water, mixed uniformly by vortex, and analyzed by LC-MS/MS. The half-life stability data of human liver microsomes is as follows: […]

[3] = Binding rate test of compounds and human plasma protein (equilibrium dialysis); format: in vitro ADME; conditions: human plasma, equilibrium dialysis 6 hours, 37° C.
Protocol: (1) The dry dialysis membrane was soaked with ultrapure water for 20 min or more than 20 min, then soaked with 20% ethanol for 30 min to 1 h, and the membrane was rinsed with ultrapure water 2-3 times. Finally, the membrane was soaked with ultrapure water for 20 minutes for later use.
(2) The frozen plasma was thawed in a water bath at 37° C.
(3) The test compound was diluted into plasma preheated to 37° C. at a final concentration of 1 μM, and the final concentration of the control compound warfarin in plasma was 2 μM.
(4) The pre-treated dialysis membrane was assembled into the dialysis plate according to the specification of the product, and 120 μL of the receiving solution (100 mM phosphate buffer solution added 0.002% Tween 80) was added to one side of the permeable membrane in each dialysis well.
(5) 20 μL of each of the final solutions of the test compound and the control compound were added into a 96-well sample plate in duplicate, and the TO sample was obtained, which was stored in a refrigerator at −20° C. Another 20 μL of the above final solution was added to the other side of the membrane in the dialysis device in duplicate, and incubated at 37° C. by shaking at constant temperature for 6 hours.
(6) After 6 hours of incubation, 20 L of each of the dialyzed receiving solution and the administered plasma were weighed to obtain sample B and sample A in duplicate. The corresponding volume of corresponding blank plasma or receiving solution was added to sample B and sample A, respectively, so that the volume ratio of plasma to buffer in each sample well was 1:1. 300 μL of acetonitrile solution containing internal standard was added to all sample wells, and centrifuged after mixed uniformly.
(7) 200 μL of ultrapure water (150 μL for the control group) was added into the corresponding sample wells of the 96-well sample plate, and 300 μL of the supernatant (150 μL for the control group) was added into the sample well; the samples were analyzed after mixed uniformly. The free percentage and recovery rate of the compound in plasma were calculated using the following formula: Plasma protein binding rate (%)=1−free percentage, wherein free percentage (%)=CB/CA
wherein CB is the concentration of the compound in the receiving solution after equilibrium dialysis, CA is the concentration of the compound in the drug-dosed plasma after equilibrium dialysis, and CT0 is the initial concentration of the compound in plasma.

[4] = Stability experiment of compounds in human whole blood; format: in vitro ADME; conditions: whole blood (sodium heparin), 37° C., 0-4 h, read-out: T1/2 in human whole blood (converted)
Protocol: • (1) An appropriate amount of blank whole blood was added into an EP tube containing sodium heparin, then added the working solution of the test substance to a final concentration of 1 μM, and mixed by vortex; • (2) The sample was placed in a water bath at 37° C. with two parallel experiments; for one experiment, the time points were 0 h, 0.5 h, 1 h, 2 h, and 4 h; another experiment was performed to obtain the absolute zero point, which was compared with the 0 h point. • (3) An appropriate amount of sample was taken out from the incubation system, to which 300 μL of internal standard precipitant was added for protein precipitation; (4) all samples were centrifuged at 6° C. for 10 min (15700×g). • (5) 150 μL of the supernatant was taken out, to which 150 μL of water was added, which was mixed by vortex, and analyzed by LC-MS/MS. The stability data of compounds in human whole blood is as follows: […]

[5] = read-out: MIApaca killing (EC50), γδT cells + MIApaca/FG2, E:T=2:1, co-culture 20 hours, 10^-12-10^-5 M
[6] = Homo sapiens, MIA PaCa-2, γδT cells + MIApaca/FG2, E:T=2:1, co-culture 20 hours, 10^-12-10^-5 M, read-out: MIApaca killing (EC50)

| SMILES | EC50 (MIApaca/FG2 cells; [5]) [nM] | EC50 (MIApaca/FG2 cells; [6]) [nM] | other results |
| --- | --- | --- | --- |
| CC(C)OC(=O)[C@H](C)NP(=O)(CCC=C(CO)CO)Oc1ccccc1 (stereo partly drawn) [Compound 1, Isopropyl ((5-hydroxy-4-(hydroxymethyl)pent-3-en-1-yl)(phenoxy)phosphoryl)-L-alaninate] | 57.1 |  |  |
| CCC(CC)COC(=O)[C@H](C)NP(=O)(CC/C=C(\C)CO)Oc1ccccc1 (stereo partly drawn) [Compound 2, 2-Ethylbutyl (((E)-5-hydroxy-4-methylpent-3-en-1-yl)(phenoxy)phosphoryl)-L-alaninate] | 0.19 |  |  |
| CC(C)OC(=O)[C@H](C)NP(=O)(OC/C=C(/CO)C(F)(F)F)Oc1ccccc1 (stereo partly drawn) [Compound 3, Isopropyl ((phenoxy)(((Z)-4,4,4-trifluoro-3-(hydroxymethyl)but-2-en-1-yl)oxy)phosphoryl)-L-alaninate] |  | 8 |  |
| CC/C(=C\CCP(=O)(N[C@@H](C)C(=O)OC(C)C)Oc1ccccc1)CO (stereo partly drawn) [Compound 4, Isopropyl (((E)-5-hydroxy-4-ethylpent-3-en-1-yl)(phenoxy)phosphoryl)-L-alaninate] | 174 |  |  |
| CC(C)OC(=O)[C@H](C)NP(=O)(CC/C=C/CO)Oc1ccccc1 (stereo partly drawn) [Compound 5, Isopropyl (((E)-5-hydroxypent-3-en-1-yl)(phenoxy)phosphoryl)-L-alaninate] | 11.6 |  |  |
| C/C(=C\CCP(=O)(N[C@@H](C)C(=O)OC1CCCC1)Oc1ccccc1)CO (stereo partly drawn) [Compound 6, Cyclopentyl (((E)-5-hydroxy-4-methylpent-3-en-1-yl)(phenoxy)phosphoryl)-L-alaninate] | 0.098 |  |  |
| C[C@H](NP(=O)(OC/C=C(/CO)C(F)(F)F)Oc1ccccc1)C(=O)OCC1CC1 (stereo partly drawn) [Compound 9, Cyclopropylmethyl ((phenoxy)(((Z)-4,4,4-trifluoro-3-(hydroxymethyl)but-2-en-1-yl)oxy)phosphoryl)-L-alaninate] |  | 9.9 |  |
| CCC(CC)COC(=O)[C@H](C)NP(=O)(OC/C=C(/CO)C(F)(F)F)Oc1ccccc1 (stereo partly drawn) [Compound 10, 2-Ethylbutyl ((phenoxy)(((Z)-4,4,4-trifluoro-3-(hydroxymethyl)but-2-en-1-yl)oxy)phosphoryl)-L-alaninate] |  | 12.8 |  |
| C[C@H](NP(=O)(OC/C=C(/CO)C(F)(F)F)Oc1ccccc1)C(=O)OC1CCCC1 (stereo partly drawn) [Compound 11, Cyclopentyl ((phenoxy)(((Z)-4,4,4-trifluoro-3-(hydroxymethyl)but-2-en-1-yl)oxy)phosphoryl)-L-alaninate] |  | 35.4 |  |
| C[C@H](NP(=O)(OC/C=C(/CO)C(F)(F)F)Oc1ccccc1)C(=O)O[C@H]1CCOC1 (stereo partly drawn) [Compound 12, (S)-tetrahydrofuran-3-yl ((phenoxy)(((Z)-4,4,4-trifluoro-3-(hydroxymethyl)but-2-en-1-yl)oxy)phosphoryl)-L-alaninate] |  | 5.1 |  |
| C[C@H](NP(=O)(OC/C=C(/CO)C(F)(F)F)Oc1ccccc1)C(=O)O[C@@H]1CCOC1 (some centres unmarked) [Compound 13] |  | 6.6 |  |
| CC(C)OC(=O)[C@H](C)NP(=O)(OC/C=C(/CO)C(F)(F)F)Oc1cccc2ccccc12 (stereo partly drawn) [Compound 14, isopropyl ((naphthyloxy)(((Z)-4,4,4-trifluoro-3-(hydroxymethyl)but-2-en-1-yl)oxy)phosphoryl)-L-alaninate] |  | 67 |  |
| C/C(=C\CCP(=O)(N[C@@H](C)C(=O)OCc1ccccc1)Oc1ccccc1)CO (some centres unmarked) [Control compound 2, reference compound] |  |  | AUC0-t/AUC0-inf ([1]; average): 0.974; concentration at 5 min ([1]; male, cynomolgus monkey, plasma, 5 min, read-out: Plasma concentration of the unchanged drug): 299 ng/mL; concentration at 9 min ([1]; male, cynomolgus monkey, plasma, 9 min, read-out: Plasma concentration of the unchanged drug): 49 ng/mL; concentration at 30 min ([1]; male, cynomolgus monkey, plasma, 30 min, read-out: Plasma concentration of the unchanged drug): 1 ng/mL; concentration at 1 h ([1]; male, cynomolgus monkey, plasma, 1 h, read-out: Plasma concentration of the unchanged drug): 3 ng/mL; AUC(0-t) ([1]; male, cynomolgus monkey, plasma, average, read-out: AUC0-t (AUClast)): 194 ng·h/mL; clearance ([1]; male, cynomolgus monkey, plasma, average, read-out: Cl (Cl_obs)): 418 mL/min/kg; half-life [2]: 1.4 min; fraction unbound at 6 h, 1 μM [3]: 0.027; half-life at 1 μM [4]: 2 h |
| C/C(=C\COP(=O)(O)OP(=O)(O)O)CO [HMBPP control, reference compound] |  |  | EC50 (MIApaca/FG2 cells; γδT cells + MIApaca/FG2, E:T=2:1, co-culture 20 hours, 10^-12-10^-5 M, read-out: MIApaca killing (EC50)): 2.1 nM |
